According to ChEMBL document CHEMBL5291721, “A preclinical secondary pharmacology resource illuminates target-adverse drug reaction associations of marketed drugs” (Nat Commun, 2023):

Legend:
Acetylcholinesterase = Acetylcholinesterase (Homo sapiens, UniProt P22303); format: functional
Adenosine receptor A3 = target: T1, Adenosine receptor A3 (Homo sapiens, UniProt P0DMS8)
T1 sequence (P0DMS8 whole entry): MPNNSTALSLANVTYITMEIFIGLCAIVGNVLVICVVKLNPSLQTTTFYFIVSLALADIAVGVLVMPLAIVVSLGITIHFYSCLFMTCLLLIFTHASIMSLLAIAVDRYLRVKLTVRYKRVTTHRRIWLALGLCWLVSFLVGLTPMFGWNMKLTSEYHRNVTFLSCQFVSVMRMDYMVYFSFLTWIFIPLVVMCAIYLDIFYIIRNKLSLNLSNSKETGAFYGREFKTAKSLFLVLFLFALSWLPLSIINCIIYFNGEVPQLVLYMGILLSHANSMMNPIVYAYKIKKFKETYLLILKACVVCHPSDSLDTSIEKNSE

D(3) dopamine receptor = D(3) dopamine receptor (Homo sapiens, UniProt P35462)
[1] = target: Gamma-aminobutyric acid receptor subunit alpha-1/alpha-2/beta-2/gamma-2 (Homo sapiens, UniProt P14867+P18507+P47869+P47870); format: protein-complex assay
Histamine H3 receptor = Histamine H3 receptor (Homo sapiens, UniProt Q9Y5N1)
[2] = target: T2, 5-hydroxytryptamine receptor 1A (Homo sapiens, UniProt P08908)
T2 sequence (P08908 whole entry): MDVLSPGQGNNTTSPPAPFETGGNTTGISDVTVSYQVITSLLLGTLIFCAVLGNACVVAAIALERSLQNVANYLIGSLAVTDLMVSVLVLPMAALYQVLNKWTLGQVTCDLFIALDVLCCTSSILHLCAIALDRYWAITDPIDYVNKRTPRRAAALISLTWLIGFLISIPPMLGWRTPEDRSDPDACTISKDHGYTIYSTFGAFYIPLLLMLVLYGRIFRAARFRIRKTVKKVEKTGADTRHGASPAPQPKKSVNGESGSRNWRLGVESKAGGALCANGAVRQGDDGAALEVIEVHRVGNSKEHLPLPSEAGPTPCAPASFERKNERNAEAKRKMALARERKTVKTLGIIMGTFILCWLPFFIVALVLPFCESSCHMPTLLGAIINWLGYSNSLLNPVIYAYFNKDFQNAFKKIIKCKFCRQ

[3] = target: 5-hydroxytryptamine receptor 2B (Homo sapiens, UniProt P41595); format: functional, cell-based
[4] = target: Voltage-gated inwardly rectifying potassium channel KCNH2 (Homo sapiens, UniProt Q12809); format: functional; details: read-out: AC50
[5] = target: cGMP-inhibited 3',5'-cyclic phosphodiesterase 3A (Homo sapiens, UniProt Q14432); format: functional
[6] = target: Prostaglandin G/H synthase 1 (Homo sapiens, UniProt P23219); format: functional
Thromboxane A2 receptor = target: T3, Thromboxane A2 receptor (Homo sapiens, UniProt P21731); format: functional, cell-based
T3 sequence (P21731 whole entry): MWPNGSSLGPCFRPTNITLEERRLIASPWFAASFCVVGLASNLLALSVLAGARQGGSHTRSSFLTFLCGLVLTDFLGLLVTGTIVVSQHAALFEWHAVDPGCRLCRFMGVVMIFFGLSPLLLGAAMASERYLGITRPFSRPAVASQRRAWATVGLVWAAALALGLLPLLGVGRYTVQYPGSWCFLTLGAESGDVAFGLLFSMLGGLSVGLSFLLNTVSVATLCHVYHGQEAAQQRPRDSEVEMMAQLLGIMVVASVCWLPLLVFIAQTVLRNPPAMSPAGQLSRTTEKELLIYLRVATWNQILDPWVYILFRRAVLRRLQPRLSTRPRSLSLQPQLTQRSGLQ

Androgen receptor = target: T4, Androgen receptor (Homo sapiens, UniProt P10275)
T4 sequence (P10275 whole entry): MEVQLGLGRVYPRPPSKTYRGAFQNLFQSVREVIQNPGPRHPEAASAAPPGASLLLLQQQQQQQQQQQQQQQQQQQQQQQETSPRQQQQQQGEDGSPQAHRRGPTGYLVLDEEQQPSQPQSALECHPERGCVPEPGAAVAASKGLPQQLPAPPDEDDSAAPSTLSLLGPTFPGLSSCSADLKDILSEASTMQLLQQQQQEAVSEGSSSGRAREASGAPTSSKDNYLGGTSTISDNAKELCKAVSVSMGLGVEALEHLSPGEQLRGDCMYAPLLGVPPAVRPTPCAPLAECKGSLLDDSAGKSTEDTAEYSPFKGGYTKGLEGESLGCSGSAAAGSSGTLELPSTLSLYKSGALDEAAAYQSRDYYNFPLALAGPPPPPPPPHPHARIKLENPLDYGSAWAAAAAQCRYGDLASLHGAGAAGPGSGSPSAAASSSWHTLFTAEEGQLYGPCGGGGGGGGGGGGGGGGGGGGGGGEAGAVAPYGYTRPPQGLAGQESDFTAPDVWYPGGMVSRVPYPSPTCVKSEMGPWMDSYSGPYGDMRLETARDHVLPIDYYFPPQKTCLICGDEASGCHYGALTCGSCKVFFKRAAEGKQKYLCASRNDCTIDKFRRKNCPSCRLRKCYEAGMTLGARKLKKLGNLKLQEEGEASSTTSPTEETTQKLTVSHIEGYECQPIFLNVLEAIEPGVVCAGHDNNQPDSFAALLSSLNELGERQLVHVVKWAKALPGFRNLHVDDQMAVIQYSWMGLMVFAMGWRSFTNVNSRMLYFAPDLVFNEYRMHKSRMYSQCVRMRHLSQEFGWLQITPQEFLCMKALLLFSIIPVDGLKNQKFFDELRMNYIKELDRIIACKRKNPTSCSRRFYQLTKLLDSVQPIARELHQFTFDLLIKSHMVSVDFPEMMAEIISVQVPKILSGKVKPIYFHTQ

[7] = target: Gamma-aminobutyric acid receptor subunit alpha-1 (Rattus norvegicus, UniProt P62813)
Further: assay procedure not described here.

cGMP-inhibited 3',5'-cyclic phosphodiesterase 3A, sequence (Q14432 whole entry): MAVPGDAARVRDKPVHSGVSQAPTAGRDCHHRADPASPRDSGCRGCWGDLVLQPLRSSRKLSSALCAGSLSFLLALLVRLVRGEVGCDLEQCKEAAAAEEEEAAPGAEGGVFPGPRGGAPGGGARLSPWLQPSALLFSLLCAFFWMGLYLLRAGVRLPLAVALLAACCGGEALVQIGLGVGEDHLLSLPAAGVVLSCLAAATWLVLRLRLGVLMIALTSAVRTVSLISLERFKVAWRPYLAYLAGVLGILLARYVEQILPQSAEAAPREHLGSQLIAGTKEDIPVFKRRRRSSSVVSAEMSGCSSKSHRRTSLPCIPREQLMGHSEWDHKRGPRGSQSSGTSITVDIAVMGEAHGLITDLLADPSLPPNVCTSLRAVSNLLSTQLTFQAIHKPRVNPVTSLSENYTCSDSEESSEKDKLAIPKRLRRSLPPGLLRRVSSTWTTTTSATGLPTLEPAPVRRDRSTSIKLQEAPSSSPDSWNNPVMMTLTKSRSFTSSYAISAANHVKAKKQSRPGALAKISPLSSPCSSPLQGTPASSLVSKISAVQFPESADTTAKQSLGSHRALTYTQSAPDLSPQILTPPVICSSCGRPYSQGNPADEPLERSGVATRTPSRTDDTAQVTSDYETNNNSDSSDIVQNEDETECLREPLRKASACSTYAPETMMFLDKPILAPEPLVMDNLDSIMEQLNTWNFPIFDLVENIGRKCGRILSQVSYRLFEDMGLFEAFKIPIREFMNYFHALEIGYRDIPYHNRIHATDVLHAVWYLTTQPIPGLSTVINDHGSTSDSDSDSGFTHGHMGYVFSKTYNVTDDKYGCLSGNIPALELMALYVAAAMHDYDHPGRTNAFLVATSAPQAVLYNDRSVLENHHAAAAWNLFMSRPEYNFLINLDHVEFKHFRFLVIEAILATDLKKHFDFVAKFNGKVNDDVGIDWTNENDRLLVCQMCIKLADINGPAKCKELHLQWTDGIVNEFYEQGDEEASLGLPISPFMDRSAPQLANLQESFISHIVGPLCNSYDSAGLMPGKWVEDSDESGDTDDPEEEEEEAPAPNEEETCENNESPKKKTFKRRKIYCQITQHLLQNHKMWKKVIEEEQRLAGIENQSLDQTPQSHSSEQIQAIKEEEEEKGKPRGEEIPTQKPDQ
Gamma-aminobutyric acid receptor subunit alpha-1/alpha-2/beta-2/gamma-2, sequence (P14867 whole entry): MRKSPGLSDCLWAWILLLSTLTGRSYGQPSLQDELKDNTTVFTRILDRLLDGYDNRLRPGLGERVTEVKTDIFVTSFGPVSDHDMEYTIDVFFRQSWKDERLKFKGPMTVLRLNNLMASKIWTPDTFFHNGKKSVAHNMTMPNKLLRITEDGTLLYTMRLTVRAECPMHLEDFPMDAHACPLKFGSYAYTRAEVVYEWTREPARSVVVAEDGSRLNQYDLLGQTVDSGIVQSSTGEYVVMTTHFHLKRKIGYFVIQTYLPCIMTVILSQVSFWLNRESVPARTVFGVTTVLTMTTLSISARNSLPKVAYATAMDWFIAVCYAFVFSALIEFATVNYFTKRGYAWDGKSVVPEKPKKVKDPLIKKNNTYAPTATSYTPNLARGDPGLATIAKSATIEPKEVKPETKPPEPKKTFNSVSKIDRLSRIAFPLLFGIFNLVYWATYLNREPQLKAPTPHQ
Gamma-aminobutyric acid receptor subunit alpha-1/alpha-2/beta-2/gamma-2, sequence (P47870 whole entry): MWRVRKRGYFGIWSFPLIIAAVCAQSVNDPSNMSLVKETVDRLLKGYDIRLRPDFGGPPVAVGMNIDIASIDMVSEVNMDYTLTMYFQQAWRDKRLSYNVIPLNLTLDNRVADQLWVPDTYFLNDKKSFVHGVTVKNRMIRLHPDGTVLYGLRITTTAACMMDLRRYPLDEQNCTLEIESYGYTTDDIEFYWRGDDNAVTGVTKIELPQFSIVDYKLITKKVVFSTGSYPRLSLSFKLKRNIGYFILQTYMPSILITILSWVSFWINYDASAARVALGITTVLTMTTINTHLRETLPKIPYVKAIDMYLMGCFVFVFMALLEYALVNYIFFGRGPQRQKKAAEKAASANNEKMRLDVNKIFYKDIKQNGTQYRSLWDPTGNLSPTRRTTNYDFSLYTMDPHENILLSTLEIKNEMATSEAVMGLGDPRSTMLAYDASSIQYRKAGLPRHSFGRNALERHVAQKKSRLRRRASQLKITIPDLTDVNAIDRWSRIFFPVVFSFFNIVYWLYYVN
Gamma-aminobutyric acid receptor subunit alpha-1/alpha-2/beta-2/gamma-2, sequence (P18507 whole entry): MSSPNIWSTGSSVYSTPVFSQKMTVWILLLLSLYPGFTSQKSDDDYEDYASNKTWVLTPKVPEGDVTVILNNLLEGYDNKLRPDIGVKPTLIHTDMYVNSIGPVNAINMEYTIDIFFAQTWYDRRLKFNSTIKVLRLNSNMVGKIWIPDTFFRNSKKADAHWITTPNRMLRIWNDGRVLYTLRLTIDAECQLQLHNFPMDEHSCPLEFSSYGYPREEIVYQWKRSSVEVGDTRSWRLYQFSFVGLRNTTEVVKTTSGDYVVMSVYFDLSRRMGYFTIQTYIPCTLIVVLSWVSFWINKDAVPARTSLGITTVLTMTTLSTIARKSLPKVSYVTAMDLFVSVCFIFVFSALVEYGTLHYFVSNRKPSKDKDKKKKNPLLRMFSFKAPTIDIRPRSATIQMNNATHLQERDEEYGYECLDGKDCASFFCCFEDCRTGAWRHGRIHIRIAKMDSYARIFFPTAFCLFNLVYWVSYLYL
Gamma-aminobutyric acid receptor subunit alpha-1/alpha-2/beta-2/gamma-2, sequence (P47869 whole entry): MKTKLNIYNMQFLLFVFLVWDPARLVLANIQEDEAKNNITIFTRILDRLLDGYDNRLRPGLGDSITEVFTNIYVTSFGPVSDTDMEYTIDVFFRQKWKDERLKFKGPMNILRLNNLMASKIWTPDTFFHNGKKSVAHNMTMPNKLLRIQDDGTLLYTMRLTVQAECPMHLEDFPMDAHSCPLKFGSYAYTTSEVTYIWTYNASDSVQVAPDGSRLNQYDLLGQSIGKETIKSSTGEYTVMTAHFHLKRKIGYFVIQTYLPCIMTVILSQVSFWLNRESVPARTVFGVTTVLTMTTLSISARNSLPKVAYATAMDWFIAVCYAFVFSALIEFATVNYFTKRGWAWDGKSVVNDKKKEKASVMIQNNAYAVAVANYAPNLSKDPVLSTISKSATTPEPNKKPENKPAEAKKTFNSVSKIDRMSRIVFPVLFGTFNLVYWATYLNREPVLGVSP
Gamma-aminobutyric acid receptor subunit alpha-1, sequence (P62813 whole entry): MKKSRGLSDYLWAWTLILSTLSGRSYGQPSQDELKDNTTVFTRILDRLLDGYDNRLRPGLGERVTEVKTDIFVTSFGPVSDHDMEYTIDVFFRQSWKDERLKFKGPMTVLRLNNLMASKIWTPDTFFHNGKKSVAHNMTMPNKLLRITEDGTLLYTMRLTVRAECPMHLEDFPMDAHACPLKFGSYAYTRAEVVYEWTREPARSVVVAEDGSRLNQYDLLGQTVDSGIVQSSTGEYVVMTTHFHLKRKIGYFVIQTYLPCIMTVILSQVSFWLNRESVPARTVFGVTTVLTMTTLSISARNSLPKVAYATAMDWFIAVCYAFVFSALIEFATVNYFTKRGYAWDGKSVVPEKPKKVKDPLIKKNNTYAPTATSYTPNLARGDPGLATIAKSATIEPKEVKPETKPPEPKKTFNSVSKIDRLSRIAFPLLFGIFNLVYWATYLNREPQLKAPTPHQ
Acetylcholinesterase, sequence (P22303 whole entry): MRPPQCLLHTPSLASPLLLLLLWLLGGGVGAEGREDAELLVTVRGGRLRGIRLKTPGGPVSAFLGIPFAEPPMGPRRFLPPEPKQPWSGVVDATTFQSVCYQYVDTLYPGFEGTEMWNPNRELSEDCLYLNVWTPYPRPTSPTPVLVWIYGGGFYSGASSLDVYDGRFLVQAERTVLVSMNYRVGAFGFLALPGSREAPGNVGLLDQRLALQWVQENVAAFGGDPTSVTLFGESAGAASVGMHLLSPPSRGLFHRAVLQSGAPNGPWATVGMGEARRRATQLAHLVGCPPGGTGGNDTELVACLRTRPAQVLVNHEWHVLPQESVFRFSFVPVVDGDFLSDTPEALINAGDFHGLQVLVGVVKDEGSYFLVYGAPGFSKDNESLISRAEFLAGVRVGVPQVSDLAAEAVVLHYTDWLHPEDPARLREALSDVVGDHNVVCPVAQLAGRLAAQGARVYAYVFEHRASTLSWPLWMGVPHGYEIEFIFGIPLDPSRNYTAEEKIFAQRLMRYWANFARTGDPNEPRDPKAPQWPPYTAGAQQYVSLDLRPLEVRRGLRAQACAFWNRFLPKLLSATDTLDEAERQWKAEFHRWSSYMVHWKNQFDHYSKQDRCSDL
Histamine H3 receptor, sequence (Q9Y5N1 whole entry): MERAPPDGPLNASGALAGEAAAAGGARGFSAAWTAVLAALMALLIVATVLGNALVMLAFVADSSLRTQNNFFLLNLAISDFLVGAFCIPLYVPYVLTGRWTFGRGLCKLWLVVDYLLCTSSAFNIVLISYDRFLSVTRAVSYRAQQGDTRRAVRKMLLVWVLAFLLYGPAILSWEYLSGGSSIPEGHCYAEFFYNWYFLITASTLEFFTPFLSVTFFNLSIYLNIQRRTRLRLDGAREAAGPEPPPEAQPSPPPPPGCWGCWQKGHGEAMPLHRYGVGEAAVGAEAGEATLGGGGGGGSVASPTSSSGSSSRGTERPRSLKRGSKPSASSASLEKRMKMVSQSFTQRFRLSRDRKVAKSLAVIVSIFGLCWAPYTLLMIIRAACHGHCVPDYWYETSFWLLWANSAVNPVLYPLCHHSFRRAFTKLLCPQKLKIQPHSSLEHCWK
D(3) dopamine receptor, sequence (P35462 whole entry): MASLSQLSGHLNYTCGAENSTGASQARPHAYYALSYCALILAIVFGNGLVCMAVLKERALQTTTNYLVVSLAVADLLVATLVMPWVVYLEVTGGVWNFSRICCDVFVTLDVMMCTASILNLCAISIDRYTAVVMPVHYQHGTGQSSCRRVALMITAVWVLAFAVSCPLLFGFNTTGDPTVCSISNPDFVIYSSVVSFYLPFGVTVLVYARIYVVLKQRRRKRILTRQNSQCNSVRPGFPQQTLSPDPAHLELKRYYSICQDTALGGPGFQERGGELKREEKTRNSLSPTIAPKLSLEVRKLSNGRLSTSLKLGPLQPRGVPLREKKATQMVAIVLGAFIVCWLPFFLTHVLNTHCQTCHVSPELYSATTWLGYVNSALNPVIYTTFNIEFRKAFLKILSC

Row | SMILES | AC50 (Acetylcholinesterase) | AC50 (Adenosine receptor A3) | AC50 (D(3) dopamine receptor) | AC50 [1] | AC50 (Histamine H3 receptor) | AC50 [2] | AC50 [3] | AC50 [4] | AC50 [5] | AC50 [6] | AC50 (Thromboxane A2 receptor) | AC50 (Androgen receptor) | AC50 [7]
1 | O=c1[nH]c(=O)n([C@H]2C[C@H](O)[C@@H](CO)O2)cc1F [FLOXURIDINE] | > 30 µM | > 30 µM | > 30 µM | > 30 µM | > 30 µM | > 30 µM | > 30 µM | > 30 µM | > 30 µM | > 30 µM | > 30 µM | – | –
2 | N=c1ccn2c(n1)O[C@H]1[C@H](O)[C@@H](CO)O[C@H]12 [ANCITABINE] | > 30 µM | > 30 µM | > 30 µM | > 30 µM | > 30 µM | > 30 µM | > 30 µM | > 30 µM | > 30 µM | > 30 µM | > 30 µM | – | –
3 | CN1CCN(C2=Nc3ccccc3Sc3ccc(Cl)cc32)CC1 [CLOTHIAPINE] | > 30 µM | – | 0.0061 µM | – | > 30 µM | 12.1 µM | > 30 µM | 4.1 µM | > 30 µM | > 30 µM | > 10 µM | > 30 µM | > 30 µM
4 | OC(CCN1CCCCC1)(c1ccccc1)c1ccccc1 [PRIDINOL] | > 30 µM | > 30 µM | – | – | > 30 µM | 29.8 µM | > 30 µM | 8.8 µM | > 30 µM | > 30 µM | > 30 µM | > 30 µM | > 30 µM
5 | CC(=O)c1ccc2c(c1)N(CCCN(C)C)c1ccccc1S2 [ACEPROMAZINE] | > 30 µM | > 30 µM | 0.0087 µM | > 30 µM | > 30 µM | 0.248 µM | > 30 µM | 2.5 µM | > 30 µM | > 30 µM | 13.7 µM | – | –
6 | OC[C@@H](O)[C@H](O)[C@@H](O)CO [XYLITOL] | > 30 µM | > 30 µM | > 30 µM | > 30 µM | > 30 µM | > 30 µM | > 30 µM | > 30 µM | > 30 µM | > 30 µM | > 30 µM | – | –
7 | C=CCN1C[C@H](C(=O)N(CCCN(C)C)C(=O)NCC)C[C@@H]2c3cccc4[nH]cc(c34)C[C@H]21 [CABERGOLINE] | 11.4 µM | > 30 µM | 0.003 µM | > 30 µM | > 30 µM | 0.0083 µM | 0.0032 µM | 7.68 µM | > 30 µM | > 30 µM | > 30 µM | – | –
8 | O=c1[nH]c(=O)n([C@H]2C[C@H](O)[C@@H](CO)O2)cc1I [IDOXURIDINE] | > 30 µM | > 30 µM | > 30 µM | > 30 µM | > 30 µM | > 30 µM | > 30 µM | > 30 µM | > 30 µM | > 30 µM | > 30 µM | – | –
9 | CC(=O)Oc1ccc2c(c1)CC[C@@H]1[C@@H]2CC[C@]2(C)[C@@H](O)CC[C@@H]12 [ESTRADIOL ACETATE] | > 30 µM | 10.5 µM | > 30 µM | > 30 µM | > 30 µM | > 30 µM | > 30 µM | > 30 µM | > 30 µM | > 3 µM | 13.1 µM | – | –
10 | CCN(CC)CCOC(=O)C(c1ccccc1)C1CCCCC1 (stereo not drawn) [DROFENINE] | > 30 µM | > 30 µM | 0.217 µM | > 30 µM | > 30 µM | 2.71 µM | > 30 µM | 4.7 µM | > 30 µM | > 30 µM | > 30 µM | – | –
11 | CC[C@@H](C(N)=O)N1CCCC1=O | > 30 µM | > 30 µM | > 30 µM | > 30 µM | > 30 µM | > 30 µM | > 30 µM | > 30 µM | > 30 µM | > 30 µM | > 30 µM | – | –
12 | Nc1ccncc1N [AMIFAMPRIDINE] | > 30 µM | > 30 µM | > 30 µM | > 30 µM | > 30 µM | > 30 µM | > 30 µM | > 30 µM | > 30 µM | > 30 µM | > 30 µM | – | > 30 µM
13 | N=C1CCCN1Cc1[nH]c(=O)[nH]c(=O)c1Cl | > 30 µM | > 30 µM | – | – | > 30 µM | > 30 µM | > 30 µM | > 30 µM | > 30 µM | > 30 µM | > 30 µM | > 30 µM | > 30 µM
14 | CCCCS(=O)(=O)N[C@@H](Cc1ccc(OCCCCC2CCNCC2)cc1)C(=O)O [TIROFIBAN] | > 30 µM | – | > 30 µM | – | > 30 µM | > 30 µM | > 30 µM | > 30 µM | > 30 µM | > 30 µM | > 10 µM | > 30 µM | > 30 µM
15 | NNc1nnc(NN)c2ccccc12 [DIHYDRALAZINE] | > 30 µM | 0.197 µM | > 30 µM | > 30 µM | > 30 µM | > 30 µM | > 30 µM | 0.44 µM | > 30 µM | 0.434 µM | > 30 µM | – | –
16 | CCOC(=O)[C@H](CCc1ccccc1)N[C@@H](C)C(=O)N1CC2(C[C@H]1C(=O)O)SCCS2 | > 30 µM | > 30 µM | > 30 µM | > 30 µM | > 30 µM | > 30 µM | > 30 µM | > 30 µM | > 30 µM | > 30 µM | > 30 µM | – | –
17 | CCCC1O[C@@H]2C[C@H]3[C@@H]4CCC5=CC(=O)C=C[C@]5(C)[C@H]4[C@@H](O)C[C@]3(C)[C@]2(C(=O)CO)O1 (stereo partly drawn) [BUDESONIDE] | > 30 µM | > 30 µM | > 30 µM | > 30 µM | > 30 µM | > 30 µM | > 30 µM | > 30 µM | > 30 µM | > 30 µM | > 30 µM | – | –
